The values below are quoted from earlier work in patent publication US20070212387A1, “COATINGS FOR IMPLANTABLE MEDICAL DEVICES” (Sahajanand Medical Technologies Pvt. Ltd., priority 2006, published 2007).

For data set [1] the following is noted: in water.

As to `O=c1c(-c2ccc(O)cc2)coc2cc(O[C@@H]3O[C@H](CO)[C@@H](O)[C@H](O)[C@H]3O)cc(O)c12` [Genistin], the water solubility entry in data set [1] is recorded as “greater water solubility than genistein”.
With `O=c1c(O)c(-c2ccc(O)c(O)c2)oc2cc(O)cc(O)c12` [Quercetin, 2-(3,4-dihydroxyphenyl)-3,5,7-trihydroxy-4H-1-benzopyran-4-one], the water solubility result in data set [1] is “practically insoluble in water”.
As for `O=c1c(-c2ccc(O)cc2)coc2cc(O)cc(O)c12` [Genistein, 5,7-dihydroxy-3-(4-hydroxyphenyl)-4H-1-benzopyran-4-one], in the data set with platelets, the “concentration preventing collagen induced platelet aggregation” value was “more than 25 μM”. For the same compound, the water solubility entry in data set [1] is given as “practically insoluble in water”.
